Results taken from patent publication US4006238A, “Use of 2-(hydroxyalkyl)-1H-benz[de]isoquinoline-1,3(2H)-diones as anti-allergy agents” (E. R. Squibb & Sons, Inc., priority 1975, dated 1977).

Test system: reaginic antibody induced passive cutaneous anaphylaxis (PCA) reaction
Test: reaginic antibody induced passive cutaneous anaphylaxis (PCA) reaction in rats
Type: in vivo
Settings: male rat; anti-Egg Albumin intradermal; two doses of test compound (75 mg./kg.) intraperitoneally, 90 and 10 minutes prior to intravenous Egg Albumin/Evans Blue challenge; scored thirty minutes after
Method: The compounds of formula I are anti-allergics which inhibit the effects of certain antigen-antibody reactions and in particular inhibit the release of mediators such as histamine. The anti-allergy activity of these compounds is determined by the reaginic antibody induced passive cutaneous anaphylaxis (PCA) reaction in rats. (See Bach, Immediate Hypersensitivity: Laboratory Models and Experimental Findings, Ann. Rep. Med. Chem., 7: 238-248 (1972), for a discussion of the predictability of clinical efficacy of compounds active in the PCA).
The experimental procedure employed is as follows. A male rat is given an intradermal injection on one flank of 0.05 ml. of antibody (reaginic) (anti-Egg Albumin). 24 hours later two doses of test compound (75 mg./kg.) are administered intraperitoneally, one dose ninety minutes and the other ten minutes prior to a 0.5 ml. intravenous injection of an antigen challenge (equal portions of Egg Albumin 4 mg./ml. and 1% Evans Blue Dye). […] A score is obtained according to the formula
Total score = (diameter) × (intensity)
wherein the intensity of the spot is rated on a scale of 1 to 3 as follows
and the diameter is determined by averaging in millimeters two measured diameters of the reaction.
The percent inhibition is calculated by comparing the scores obtained in both compound and non-compound treated animals according to a pre-determined standard curve relationship between score and the quantity of antibody used to elicit the reaction.

O=C1c2cccc3cccc(c23)C(=O)N1CCCCO [2-(4-Hydroxybutyl)-1H-benz[de]isoquinoline-1,3(2H)-dione]
Percent Inhibition: 53%

O=C1c2cccc3cccc(c23)C(=O)N1CCO [2-(2-Hydroxyethyl)-1H-benz[de]isoquinoline-1,3(2H)-dione]
Percent Inhibition: 36%

O=C1c2cccc3cccc(c23)C(=O)N1CCCO [2-(3-Hydroxypropyl)-1H-benz[de]isoquinoline-1,3(2H)-dione]
Percent Inhibition: 52%

O=C1c2cccc3cccc(c23)C(=O)N1CO [2-(Hydroxymethyl)-1H-benz[de]isoquinoline-1,3(2H)-dione]
Percent Inhibition: 50%

O=C1c2cccc3cccc(c23)C(=O)N1CCCCCO [2-(5-Hydroxypentyl)-1H-benz[de]isoquinoline-1,3(2H)-dione]
Percent Inhibition: 8%
